The results in this text go back to ChEMBL document CHEMBL6109146, “Discovery of New Pyrazolone Carbothioamide Derivatives as Potent Antifungal Agents for the Treatment of Candidiasis and Cryptococcosis” (J Med Chem, 2025).

The nature of series [1]: Cmax in male ICR mouse at 2 mg/kg, iv measured after 24 hrs by LC-MS/MS analysis. The conditions noted are these: in vivo. Type of series: ADME, organism-based.
Series [2] is described as follows: Tmax in male ICR mouse at 20 mg/kg, po measured after 24 hrs by LC-MS/MS analysis. The class given is ADME, organism-based. The note with it: in vivo.
A short description of series [3]: Cmax in male ICR mouse at 20 mg/kg, po measured after 24 hrs by LC-MS/MS analysis. The note with it: in vivo. Type of series: ADME, organism-based.
A further series relates to [Candida] auris. Put plainly: Antifungal activity against Candida auris 15448 assessed as inhibition of fungal growth incubated for 48 to 72 hrs by microplate reader analysis. The class given is functional, organism-based. The conditions noted are these: Candidozyma auris, time 48-72 hrs.
The subject of series [4] is Cryptococcus neoformans. Put plainly: Antifungal activity against Cryptococcus neoformans H99 assessed as inhibition of fungal growth incubated for 48 to 72 hrs by microplate reader analysis. Type of series: functional. The note with it: time 48-72 hrs.
Series [5] has as its system Nakaseomyces glabratus. The experiment in a line: Antifungal activity against Candida glabrata 0161 assessed as inhibition of fungal growth at <0.0078 microg/ml incubated for 72 hrs by microplate reader analysis. The note with it: dose < 0.0078 µg/ml. Type of series: functional, organism-based.
Series [6] relates to Cryptococcus neoformans. Put plainly: Fungicidal activity against Cryptococcus neoformans H99 at 32 microg/ml incubated for 72 hrs by time-kill kinetics analysis. The class given is functional, organism-based. The note with it: dose 32.0 µg/ml.
For series [7], the system named is Cryptococcus neoformans. Put plainly: Fungicidal activity against Cryptococcus neoformans H99 incubated for 72 hrs by time-kill kinetics analysis. The class given is functional.
For series [8], the system named is Cryptococcus neoformans. Put plainly: Antifungal activity against Cryptococcus neoformans H99 assessed as inhibition of fungal growth at 0.5 to 4 microg/ml incubated for 48 hrs by spot-plating assay. The conditions noted are these: dose 0.5-4 µg/ml. The class given is functional, organism-based.
The subject of series [9] is Nakaseomyces glabratus. The experiment in a line: Antifungal activity against Candida glabrata 0161 assessed as inhibition of fungal cell colony formation at 0.5 microg/ml incubated for 48 hrs by spot-plating assay. The class given is functional, organism-based. The note with it: dose 0.5 µg/ml.
The test system of series [10] is Cryptococcus neoformans. Put plainly: Antifungal activity against Cryptococcus neoformans H99 assessed as inhibition of fungal cell colony formation at 0.5 microg/ml incubated for 48 hrs by spot-plating assay. The class given is functional, organism-based. The conditions noted are these: dose 0.5 µg/ml.
Series [11] concerns Cryptococcus neoformans. The experiment in a line: Inhibition of biofilm formation in Cryptococcus neoformans H99 at 32 microg/ml incubated for 24 hrs by XTT reagent based assay relative to control. Type of series: functional. For orientation: Tetrazolium dyes change colour on reduction, which living cells bring about.
In series [12] the test system is Cryptococcus neoformans. The experiment in a line: Induction of morphological changes in Cryptococcus neoformans H99 assessed as cell membrane damage by measuring plasmolysis at 4 microg/ml incubated for 8 hrs by transmission electron microscopic analysis. Type of series: functional, organism-based. The conditions noted are these: dose 4.0 µg/ml.
For series [13], the system named is Cryptococcus neoformans. Put plainly: Upregulation of TSA1 gene expression in Cryptococcus neoformans H99 at 4 microg/ml incubated for 8 hrs by qRT-PCR analysis. Type of series: functional. The note with it: dose 4.0 µg/ml. (Quantitative PCR measures a nucleic acid by following its amplification.)
In series [14] the test system is Cryptococcus neoformans. The experiment in a line: Upregulation of TRX1 gene expression in Cryptococcus neoformans H99 at 4 microg/ml incubated for 8 hrs by qRT-PCR analysis. Type of series: functional. The note with it: dose 4.0 µg/ml.
Series [15] relates to Nakaseomyces glabratus. Put plainly: Upregulation of SOD1 gene expression in Candida glabrata 0161 incubated for 8 hrs by qRT-PCR analysis. The class given is functional.
The test system of series [16] is Cryptococcus neoformans. Put plainly: Antifungal activity against Cryptococcus neoformans H99 assessed as inhibition of fungal growth in presence of 1 to 10 microg/ml Fe(II) ion. The class given is functional, organism-based.
The test system of series [17] is Cryptococcus neoformans. Put plainly: Antifungal activity against Cryptococcus neoformans H99 assessed as inhibition of fungal growth in presence of 1 to 10 microg/ml Fe(III) ion. Type of series: functional, organism-based.
The subject of series [18] is Nakaseomyces glabratus. The experiment in a line: Antifungal activity against Candida glabrata 0161 assessed as inhibition of fungal growth in presence of Fe(II) ion. Type of series: functional, organism-based.
In series [19] the test system is Nakaseomyces glabratus. The experiment in a line: Antifungal activity against Candida glabrata 0161 infected in candidiasis female ICR mouse model assessed as reduction in fungal burden in kidney at 20 mg/kg, po pre-infected with fungi for 3 hrs followed by compound administration and measured after 5 days. The note with it: time 5.0 day. The class given is functional, organism-based.

≈ marks a conversion by molar mass, not a printed value. Calls of active or inactive are those of the source.

Take `Nc1cc(=O)n(C(=S)Nc2ccc(C3CCCCC3)cc2)[nH]1`: the Cmax in [1] is 2810 ng/mL; in [3] it was 1720 ng/mL. Moreover, the Tmax in series [2] is 15 min. Further, the outcome (in series [Candida] auris; with Cryptococcus neoformans [8]; in the series on Nakaseomyces glabratus [9]; with Cryptococcus neoformans [10]; with Cryptococcus neoformans [12]; in the series with Cryptococcus neoformans [13]) was Active. Also, the outcome with Cryptococcus neoformans [14], in the series on Nakaseomyces glabratus [15] and with Nakaseomyces glabratus [19] was Active. For the same compound, the MIC80 in the series on Cryptococcus neoformans [4] was found to be 0.38 nM (≈ 0.12 ng/mL). For the same compound, the Activity entry in the series with Nakaseomyces glabratus [5] was “Not active; Decrease In Inhibitory Potency Observed”. For the same compound, the outcome in the series on Cryptococcus neoformans [6], with Cryptococcus neoformans [16], in the series with Cryptococcus neoformans [17] and in the series with Nakaseomyces glabratus [18] was inactive. This compound had a minimal fungicidal concentration (MFC) against Cryptococcus neoformans [7] of 16 µg/mL (≈ 50.6 µM). For the same compound, the inhibition at 32 µg/mL in the series on Cryptococcus neoformans [11] is 77%.

Usually Cmax stands for the peak of the concentration-time curve. As usually defined, the Tmax is the time at which the peak concentration occurs. For orientation: MIC80 means an inhibitory concentration at the 80% level, which refers to growth in some studies and to a panel of isolates in others. Broadly, the MFC is the smallest concentration meeting the test's criterion for killing the fungus. Low values mean more potent killing, high ones less potent killing. One may read the inhibition as the relative decrease from the control value, in per cent. A lower inhibition goes with a weak effect.
